Measured values: US7304174B2, “CaSR antagonist” (Japan Tobacco Inc., priority 2003, dated 2007)

Target: T1, human calcium receptor (Homo sapiens, UniProt P41180)
T1 construct: expressed in transfected cells; host or cells: cell strain derived from rat adrenal, co-transformed with luciferase cDNA
T1 sequence (P41180 20-1078): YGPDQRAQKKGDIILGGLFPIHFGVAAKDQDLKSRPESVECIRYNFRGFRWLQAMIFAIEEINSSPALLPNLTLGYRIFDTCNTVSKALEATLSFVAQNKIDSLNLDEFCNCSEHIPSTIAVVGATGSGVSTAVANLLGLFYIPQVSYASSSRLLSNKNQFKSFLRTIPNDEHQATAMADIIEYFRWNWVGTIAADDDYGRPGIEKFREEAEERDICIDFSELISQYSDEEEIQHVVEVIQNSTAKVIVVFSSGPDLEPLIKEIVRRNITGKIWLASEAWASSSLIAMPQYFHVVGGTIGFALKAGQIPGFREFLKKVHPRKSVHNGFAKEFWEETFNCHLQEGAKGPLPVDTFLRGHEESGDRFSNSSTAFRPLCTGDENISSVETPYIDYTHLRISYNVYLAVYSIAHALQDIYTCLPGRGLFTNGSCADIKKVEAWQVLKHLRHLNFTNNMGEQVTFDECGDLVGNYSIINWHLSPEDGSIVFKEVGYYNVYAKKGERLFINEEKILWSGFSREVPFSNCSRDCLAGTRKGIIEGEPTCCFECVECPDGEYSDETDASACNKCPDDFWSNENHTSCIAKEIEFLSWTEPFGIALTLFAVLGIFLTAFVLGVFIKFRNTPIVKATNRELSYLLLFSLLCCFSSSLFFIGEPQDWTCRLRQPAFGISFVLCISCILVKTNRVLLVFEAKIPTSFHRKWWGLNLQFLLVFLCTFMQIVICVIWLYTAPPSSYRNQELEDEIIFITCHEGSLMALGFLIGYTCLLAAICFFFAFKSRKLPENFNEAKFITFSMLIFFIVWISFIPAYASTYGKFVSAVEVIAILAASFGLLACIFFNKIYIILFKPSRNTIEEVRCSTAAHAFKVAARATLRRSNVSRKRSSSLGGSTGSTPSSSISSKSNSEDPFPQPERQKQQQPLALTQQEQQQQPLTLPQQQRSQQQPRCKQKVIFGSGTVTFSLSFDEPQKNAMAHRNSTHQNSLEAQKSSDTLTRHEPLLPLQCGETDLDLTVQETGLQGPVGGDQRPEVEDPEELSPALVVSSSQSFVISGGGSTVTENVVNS
Experiment: Evaluation of antagonistic action on calcium receptor using reporter gene (luciferase)
Format: cell-based
Conditions: transformed rat adrenal derived cells, 5 mM calcium chloride, culture 4 hrs, luciferase activity; read-out: Reporter gene assay (IC50, concentration showing 50% inhibitory rate)
In short: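 Rat adrenal-derived cells transfected with luciferase and human calcium receptor cDNA, in F12 with 0.5% dialyzed horse serum and 0.25% dialyzed fetal bovine serum. Luciferase luminescence gave % inhibition vs control and blank; IC50 at 50% inhibition.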

Compound	IC50 [nM]
CC(OC[C@H](O)CNC(C)(C)Cc1ccc2ccccc2c1)c1ccccc1OCc1ccc(C(=O)O)cc1 (some centres unmarked) [2-22′]	23
4-[2-[1-[(2R)-3-[[1-(3-fluoro-4-methylphenyl)-2-methylpropan-2-yl]amino]-2-hydroxypropoxy]ethyl]phenoxy]-3-methoxybenzoic acid [Example 2-2]	21
Cc1ccc(CC(C)(C)NC[C@@H](O)CO[C@H](C)c2ccccc2Oc2ccc(C(=O)O)c(Cl)c2)cc1F [Example 2-31, 4-[2-[1-[(2R)-3-[[1-(3-fluoro-4-methylphenyl)-2-methylpropan-2-yl]amino]-2-hydroxypropoxy]ethyl]phenoxy]-2-chlorobenzoic acid]	16
CC(OC[C@H](O)CNC(C)(C)Cc1ccc2ccccc2c1)c1ccccc1OCc1cccc(C(=O)O)c1 (some centres unmarked) [2-21′]	26
Cc1ccc(CC(C)(C)NC[C@@H](O)CO[C@H](C)c2ccccc2-c2ccc(C(=O)O)c(C)c2)c(F)c1 [Example 1-7, 2′-[1-[(2R)-3-[[1-(2-fluoro-4-methylphenyl)-2-methylpropan-2-yl]amino]-2-hydroxypropoxy]ethyl]-3-methylbiphenyl-4-carboxylic acid]	15
Cc1ccc(CC(C)(C)NC[C@@H](O)CO[C@H](C)c2ccccc2-c2cc3c(c(C(=O)O)c2)OCC3)cc1F [Example 1-78, 2,3-dihydro-5-[2-[1-[(2R)-3-[[1-(3-fluoro-4-methylphenyl)-2-methylpropan-2-yl]amino]-2-hydroxypropoxy]ethyl]phenyl]benzofuran-7-carboxylic acid]	20
C[C@@H](OC[C@H](O)CNC(C)(C)Cc1ccc2ccccc2c1)c1ccccc1-c1cc(C(=O)O)ccc1F [Example 1-58, 6-fluoro-2′-[1-[(2R)-3-[[1-(naphthalen-2-yl)-2-methylpropan-2-yl]amino]-2-hydroxypropoxy]ethyl]biphenyl-3-carboxylic acid]	21
Cc1cc(C(=O)O)ccc1Oc1ccccc1C(C)OC[C@H](O)CNC(C)(C)Cc1ccc(Cl)c(F)c1 (stereo partly drawn) [Example 2-36, 4-[2-[1-[(2R)-3-[[1-(4-chloro-3-fluorophenyl)-2-methylpropan-2-yl]amino]-2-hydroxypropoxy]ethyl]phenoxy]-5-methylbenzoic acid]	13
Cc1cc(-c2ccccc2C(OC[C@H](O)CNC(C)(C)Cc2ccc(Cl)cc2F)C2CC2)ccc1C(=O)O (stereo partly drawn) [Example 1-18, 2′-[(cyclopropyl)[(2R)-3-[[1-(4-chloro-2-fluorophenyl)-2-methylpropan-2-yl]amino]-2-hydroxypropoxy]methyl]-3-methylbiphenyl-4-carboxylic acid]	16
Cc1cc(-c2ccccc2C(OC[C@H](O)CNC(C)(C)Cc2ccc3ccccc3c2)C2CC2)ccc1C(=O)O (stereo partly drawn) [Example 1-63, 2′-[(cyclopropyl)[(2R)-3-[[1-(naphthalen-2-yl)-2-methylpropan-2-yl]amino]-2-hydroxypropoxy]methyl]-3-methylbiphenyl-4-carboxylic acid]	16
CC(OC[C@H](O)CNC(C)(C)Cc1ccc(Cl)cc1F)c1ccccc1Oc1ccc(C(=O)O)cc1 (stereo partly drawn) [Example 2-6, 4-[2-[1-[(2R)-3-[[1-(4-chloro-2-fluorophenyl)-2-methylpropan-2-yl]amino]-2-hydroxypropoxy]ethyl]phenoxy]benzoic acid]	22
Cc1c(C(=O)O)ccc(-c2ccccc2[C@@H](C)OC[C@H](O)CNC(C)(C)Cc2ccc3ccccc3c2)c1C [Example 1-37, 2,3-dimethyl-2′-[1-[(2R)-3-[[1-(naphthalen-2-yl)-2-methylpropan-2-yl]amino]-2-hydroxypropoxy]ethyl]biphenyl-4-carboxylic acid]	3
Cc1ccc(CC(C)(C)NC[C@@H](O)CO[C@H](C)c2ccccc2Oc2ccc(C(=O)O)cc2F)cc1F [Example 2-34, 4-[2-[1-[(2R)-3-[[1-(3-fluoro-4-methylphenyl)-2-methylpropan-2-yl]amino]-2-hydroxypropoxy]ethyl]phenoxy]-3-fluorobenzoic acid]	6
Cc1cc(-c2ccccc2[C@@H](C)OC[C@H](O)CNC(C)(C)Cc2cc(F)cc(Cl)c2)ccc1C(=O)O [Example 1-93]	27

The remaining lines, values ahead:

IC50 [nM]	Compound
3	CC(C)c1cc(-c2ccccc2[C@@H](C)OC[C@H](O)CNC(C)(C)Cc2ccc(Cl)c(F)c2)ccc1C(=O)O [Example 1-52, 2′-[1-[(2R)-3-[[1-(4-chloro-3-fluorophenyl)-2-methylpropan-2-yl]amino]-2-hydroxypropoxy]ethyl]-3-isopropylbiphenyl-4-carboxylic acid]
14	Cc1ccc(CC(C)(C)NC[C@@H](O)CO[C@H](C)c2ccccc2-c2ccc(C(=O)O)c(C)c2)cc1F [Example 1-108]
16	COc1cc(CC(C)(C)NC[C@@H](O)CO[C@H](C)c2ccccc2-c2ccc(C(=O)O)c(C)c2)ccc1Cl [Example 1-23, 2′-[1-[(2R)-3-[[1-(4-chloro-3-methoxyphenyl)-2-methylpropan-2-yl]amino]-2-hydroxypropoxy]ethyl]-3-methylbiphenyl-4-carboxylic acid]
20	CCc1ccc(CC(C)(C)NC[C@@H](O)CO[C@H](C)c2ccccc2-c2ccc(C(=O)O)c(C)c2)cc1 [Example 1-24, 2′-[1-[(2R)-3-[[1-(4-ethylphenyl)-2-methylpropan-2-yl]amino]-2-hydroxypropoxy]ethyl]-3-methylbiphenyl-4-carboxylic acid]
3	C[C@@H](OC[C@H](O)CNC(C)(C)Cc1ccc2ccccc2c1)c1ccccc1-c1ccc(C(=O)O)c(-c2ccccc2)c1 [Example 1-41, 2-[1-[(2R)-3-[[1-(naphthalen-2-yl)-2-methylpropan-2-yl]amino]-2-hydroxypropoxy]ethyl]-m-terphenyl-4′-carboxylic acid]
16	Cc1ccc(CC(C)(C)NC[C@@H](O)CO[C@H](C)c2ccccc2-c2cc(C)c(C(=O)O)c(C)c2)cc1F [Example 1-43, 2′-[1-[(2R)-3-[[1-(3-fluoro-4-methylphenyl)-2-methylpropan-2-yl]amino]-2-hydroxypropoxy]ethyl]-3,5-dimethylbiphenyl-4-carboxylic acid]
200	C[C@@H](OC[C@H](O)CNC(C)(C)Cc1ccc(Cl)c(F)c1)c1ccccc1-c1ccc(C(=O)O)c(C(=O)O)c1 [Example 1-107, 2′-[1-[(2R)-3-[[1-(4-chloro-3-fluorophenyl)-2-methylpropan-2-yl]amino]-2-hydroxypropoxy]ethyl]-3-carboxylphenyl-4-carboxylic acid]
29	COC(=O)c1cc(C(=O)OC)cc(-c2ccccc2[C@@H](C)OC[C@H](O)CNC(C)(C)Cc2ccc3ccccc3c2)c1 [Example 1-10, methyl 2′-[1-[(2R)-3-[[1-(naphthalen-2-yl)-2-methylpropan-2-yl]amino]-2-hydroxypropoxy]ethyl]biphenyl-3,5-dicarboxylate]
11	C[C@@H](OC[C@H](O)CNC(C)(C)Cc1ccc2ccccc2c1)c1ccccc1-c1cc2c(c(C(=O)O)c1)OCC2 [Example 1-74, 2,3-dihydro-5-[2-[1-[(2R)-3-[[1-(naphthalen-2-yl)-2-methylpropan-2-yl]amino]-2-hydroxypropoxy]ethyl]phenyl]benzofuran-7-carboxylic acid]
